Measurements published in ChEMBL document CHEMBL5576085, “Heterocyclic compounds as xanthine oxidase inhibitors for the management of hyperuricemia: synthetic strategies, structure-activity relationship and molecular docking studies (2018-2024)” (RSC Med Chem, 2024).

How the values were obtained:
[1] = target: T1, Xanthine dehydrogenase/oxidase (Homo sapiens, UniProt P47989); test: Inhibition of Xanthine oxidase (unknown origin)
[2] = target: T1, Xanthine dehydrogenase/oxidase; test: Inhibition of Xanthine oxidase (unknown origin) using xanthine as substrate preincubated for 30 mins followed by substrate addition by spectrophotometric analysis
[3] = target: T2, Xanthine dehydrogenase/oxidase (Bos taurus, UniProt P80457); test: Inhibition of bovine xanthine oxidase using xanthine as substrate by measuring uric acid formation measured 30 secs interval for 2 mins by spectrophotometric analysis
T2 sequence (P80457 whole entry): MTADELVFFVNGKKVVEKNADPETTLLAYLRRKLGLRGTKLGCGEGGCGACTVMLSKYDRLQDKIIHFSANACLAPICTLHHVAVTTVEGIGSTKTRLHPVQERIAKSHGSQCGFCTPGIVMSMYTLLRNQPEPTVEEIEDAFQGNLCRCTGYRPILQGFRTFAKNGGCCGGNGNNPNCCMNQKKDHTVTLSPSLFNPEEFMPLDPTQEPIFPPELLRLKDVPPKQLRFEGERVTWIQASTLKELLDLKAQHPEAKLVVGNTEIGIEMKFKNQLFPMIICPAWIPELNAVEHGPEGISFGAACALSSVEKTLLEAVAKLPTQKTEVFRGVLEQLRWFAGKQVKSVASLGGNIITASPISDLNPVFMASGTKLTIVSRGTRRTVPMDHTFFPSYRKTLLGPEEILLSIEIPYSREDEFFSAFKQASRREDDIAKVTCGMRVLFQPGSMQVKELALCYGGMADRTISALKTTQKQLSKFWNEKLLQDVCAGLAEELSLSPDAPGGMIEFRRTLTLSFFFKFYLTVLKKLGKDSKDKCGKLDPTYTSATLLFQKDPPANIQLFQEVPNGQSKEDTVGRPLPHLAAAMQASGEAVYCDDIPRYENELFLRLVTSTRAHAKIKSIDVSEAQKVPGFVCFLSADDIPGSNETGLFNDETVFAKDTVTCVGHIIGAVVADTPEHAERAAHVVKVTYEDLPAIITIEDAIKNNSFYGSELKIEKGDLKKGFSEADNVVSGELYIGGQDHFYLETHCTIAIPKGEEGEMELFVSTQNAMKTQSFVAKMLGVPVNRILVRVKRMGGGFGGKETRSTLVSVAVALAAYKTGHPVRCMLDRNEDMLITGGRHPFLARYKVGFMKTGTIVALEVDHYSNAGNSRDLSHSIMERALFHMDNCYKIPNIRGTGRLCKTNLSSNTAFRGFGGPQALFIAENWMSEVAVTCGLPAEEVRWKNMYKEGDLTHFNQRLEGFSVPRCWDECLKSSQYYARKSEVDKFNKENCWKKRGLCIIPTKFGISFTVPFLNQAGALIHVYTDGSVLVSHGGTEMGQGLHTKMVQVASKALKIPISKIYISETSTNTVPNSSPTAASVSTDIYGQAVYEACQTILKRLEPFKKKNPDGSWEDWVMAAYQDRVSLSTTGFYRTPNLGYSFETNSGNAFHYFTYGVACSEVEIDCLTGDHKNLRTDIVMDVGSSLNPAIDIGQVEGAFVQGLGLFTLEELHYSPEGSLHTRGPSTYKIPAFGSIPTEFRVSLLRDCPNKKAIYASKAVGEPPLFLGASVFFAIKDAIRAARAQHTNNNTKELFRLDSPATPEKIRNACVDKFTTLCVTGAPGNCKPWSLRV

[4] = target: T1, Xanthine dehydrogenase/oxidase; test: Inhibition of human Xanthine oxidase
[5] = target: T2, Xanthine dehydrogenase/oxidase; test: Inhibition of bovine serum Xanthine oxidase; type: cell-free
[6] = target: T2, Xanthine dehydrogenase/oxidase; test: Inhibition of bovine milk xanthine oxidase using xanthine as substrate preincubated for 30 mins followed by substrate addition by spectrophotometric analysis

T1 sequence (P47989 whole entry): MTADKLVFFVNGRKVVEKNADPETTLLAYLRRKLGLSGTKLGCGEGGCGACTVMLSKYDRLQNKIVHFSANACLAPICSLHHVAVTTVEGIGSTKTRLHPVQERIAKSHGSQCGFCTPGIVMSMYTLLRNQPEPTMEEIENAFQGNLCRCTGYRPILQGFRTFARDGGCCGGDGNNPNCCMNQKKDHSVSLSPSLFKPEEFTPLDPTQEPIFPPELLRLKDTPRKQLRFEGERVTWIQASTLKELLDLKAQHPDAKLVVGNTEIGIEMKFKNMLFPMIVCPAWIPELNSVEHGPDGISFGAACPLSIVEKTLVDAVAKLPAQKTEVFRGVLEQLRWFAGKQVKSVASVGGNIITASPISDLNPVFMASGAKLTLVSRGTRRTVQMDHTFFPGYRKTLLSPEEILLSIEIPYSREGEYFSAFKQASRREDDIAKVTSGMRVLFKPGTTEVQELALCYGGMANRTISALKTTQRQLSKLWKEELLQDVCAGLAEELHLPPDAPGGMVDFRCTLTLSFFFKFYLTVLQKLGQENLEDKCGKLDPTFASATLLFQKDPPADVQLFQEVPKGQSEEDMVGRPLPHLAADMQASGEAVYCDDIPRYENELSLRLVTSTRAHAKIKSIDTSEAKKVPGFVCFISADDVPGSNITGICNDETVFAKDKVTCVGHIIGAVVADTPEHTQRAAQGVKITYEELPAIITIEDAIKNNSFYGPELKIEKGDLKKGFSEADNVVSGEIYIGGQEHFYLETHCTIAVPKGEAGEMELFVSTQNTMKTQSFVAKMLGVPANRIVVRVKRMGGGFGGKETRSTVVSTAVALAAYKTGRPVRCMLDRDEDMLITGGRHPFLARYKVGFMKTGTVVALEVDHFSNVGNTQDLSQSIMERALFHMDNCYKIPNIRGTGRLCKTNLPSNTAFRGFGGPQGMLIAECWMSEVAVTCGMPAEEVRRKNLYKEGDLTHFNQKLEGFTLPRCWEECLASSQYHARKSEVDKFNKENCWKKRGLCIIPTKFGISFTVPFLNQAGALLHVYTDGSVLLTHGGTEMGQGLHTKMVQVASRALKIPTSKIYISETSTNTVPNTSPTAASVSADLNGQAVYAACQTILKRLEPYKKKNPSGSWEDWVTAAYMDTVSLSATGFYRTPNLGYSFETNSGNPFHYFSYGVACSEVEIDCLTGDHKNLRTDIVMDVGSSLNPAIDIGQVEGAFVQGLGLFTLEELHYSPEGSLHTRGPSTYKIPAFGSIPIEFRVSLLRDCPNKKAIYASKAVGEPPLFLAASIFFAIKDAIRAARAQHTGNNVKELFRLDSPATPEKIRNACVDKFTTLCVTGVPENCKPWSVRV

Work on `CCn1c(O)c(C(c2ccc(Br)cc2)c2c(O)n(CC)c(=S)n(CC)c2=O)c(=O)n(CC)c1=S` yielded an IC50 [1] of 1790 nM.
Work on `COc1cc2ccc(C(=O)NCCCCc3ccc(O)c(O)c3)cc2cc1OC` yielded an IC50 [1] of 13100 nM.
`Nc1ccc(O)c(/N=N/c2ncc(-n3cc4c(=O)ncnc-4[nH]3)[nH]2)c1` gave an IC50 [2] of 600 nM.
Compound `OCc1nnn(Cc2cccc(Br)c2)c1CO` has an IC50 [1] of 710 nM.
Compound `COc1ccc2c(c1)C(=O)C(=O)N2CCn1cc(COc2cc(=O)oc3ccccc23)nn1` has an IC50 [3] of 6500 nM.
`O=c1[nH]c(-c2ccc(OCC3CCCCC3)c(-n3cnnn3)c2)no1` gave an IC50 [1] of 121 nM.
For `Oc1ccc(/C=C/c2cc(O)cc3oc(-c4ccc(O)cc4)c(-c4cc(O)cc(O)c4)c23)cc1`, the IC50 [1] was 12300 nM.
For `COc1ccc(C(=O)/C=C/c2ccc(O)cc2)c(OC)c1`, the IC50 [1] was 121 nM.
Compound `COc1ccc([C@@H]2C/C(=N\c3ccc([N+](=O)[O-])cc3Cl)c3c(O)cc(O[C@H]4O[C@@H](O[C@H]5O[C@@H](C)[C@H](O)[C@@H](O)[C@H]5O)[C@H](O)[C@@H](O)[C@@H]4O)cc3O2)cc1O` has an IC50 [4] of 263 nM.
In the case of `N#Cc1cc[n+](Cc2ccc(-c3ccc(C[n+]4ccc(C#N)c(C(=O)O)c4)cc3)cc2)cc1C(=O)O`, the IC50 [5] is reported as 394 nM.
For `O=C1CCC(Nc2nc3cc(C(=O)Nc4cc(O)c(O)c(O)c4)ccc3n2Cc2ccc(O)cc2)C(=O)N1` (stereo unspecified), the IC50 [1] was 18400 nM.
`C=Cc1ccc(C[n+]2cn(Cc3ccc(SC)cc3)c3ccccc32)cc1` showed an IC50 [1] of 590 nM.
Compound `C[C@@H]1O[C@@H](OC[C@H]2O[C@@H](Oc3c(-c4ccc(O)c(O)c4)oc4cc(O)cc(O)c4/c3=N\Nc3ccccc3)[C@H](O)[C@@H](O)[C@@H]2O)[C@H](O)[C@H](O)[C@H]1O` has an IC50 [1] of 4870 nM.
`Cc1c(/N=C/c2ccc(C(=O)Nc3nc4ccc(S(C)(=O)=O)cc4s3)cc2)c(=O)n(-c2ccccc2)n1C` was tested, and the IC50 [1] was 2220 nM.
Compound `O=c1cc(O)cc(/C=C/c2ccc(O)c(O)c2)o1` [HISPIDIN] has an IC50 [6] of 39700 nM.
With `O=[N+]([O-])c1ccc(-c2cnc(-c3ccc(Br)cc3)s2)cc1` the IC50 [1] was 100 nM.
